Experimental data reported in patent US12030879B2, “Sulfonyl acetamides as NLRP3 inhibitors” (Inflazome Limited, priority 2018, dated 2024).
Counter-ions that a name gives are not always drawn.

target: T1, NLRP3 (Homo sapiens, UniProt Q96P20); test: THP-1 cells pyroptosis assay; assay type: cell-based; details: LPS 1 μg/ml, compound 3 hrs, nigericin 5 μM 1 hr, resazurin readout
T1 construct: Seed THP-1 cells (25,000 cells/well) containing 1.0 μg/ml LPS in 40 μl of RPMI medium; host or cells: THP-1 cells
T1 sequence (Q96P20 whole entry): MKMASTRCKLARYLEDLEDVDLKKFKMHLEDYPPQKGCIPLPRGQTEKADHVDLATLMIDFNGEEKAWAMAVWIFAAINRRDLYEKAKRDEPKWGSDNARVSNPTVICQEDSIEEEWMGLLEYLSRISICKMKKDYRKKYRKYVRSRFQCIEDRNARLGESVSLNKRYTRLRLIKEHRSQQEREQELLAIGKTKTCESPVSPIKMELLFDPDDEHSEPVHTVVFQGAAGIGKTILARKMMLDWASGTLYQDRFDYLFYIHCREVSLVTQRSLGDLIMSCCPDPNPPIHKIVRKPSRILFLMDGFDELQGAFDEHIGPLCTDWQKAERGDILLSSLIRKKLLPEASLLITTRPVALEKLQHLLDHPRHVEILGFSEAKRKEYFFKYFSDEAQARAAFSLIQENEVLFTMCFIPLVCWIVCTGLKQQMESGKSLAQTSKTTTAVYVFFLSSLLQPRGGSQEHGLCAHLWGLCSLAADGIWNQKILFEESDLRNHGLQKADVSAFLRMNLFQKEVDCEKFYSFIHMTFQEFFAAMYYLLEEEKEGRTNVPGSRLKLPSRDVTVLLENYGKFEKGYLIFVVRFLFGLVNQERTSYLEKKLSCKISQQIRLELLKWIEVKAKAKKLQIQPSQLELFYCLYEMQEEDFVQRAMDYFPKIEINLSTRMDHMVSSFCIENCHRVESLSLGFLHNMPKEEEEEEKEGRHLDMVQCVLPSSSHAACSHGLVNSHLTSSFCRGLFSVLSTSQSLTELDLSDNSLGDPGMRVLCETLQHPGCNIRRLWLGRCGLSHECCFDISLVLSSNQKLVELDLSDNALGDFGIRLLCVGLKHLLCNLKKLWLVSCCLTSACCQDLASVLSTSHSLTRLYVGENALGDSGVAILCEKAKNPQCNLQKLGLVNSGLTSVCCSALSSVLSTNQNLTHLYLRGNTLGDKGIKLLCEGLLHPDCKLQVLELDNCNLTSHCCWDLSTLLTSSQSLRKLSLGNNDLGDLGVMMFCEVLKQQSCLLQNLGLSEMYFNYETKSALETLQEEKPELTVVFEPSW
Description: THP-1 cells (ATCC #TIB-202) were grown in RPMI containing L-glutamine (Gibco #11835) supplemented with 1 mM sodium pyruvate (Sigma #S8636) and penicillin (100 units/ml)/streptomycin (0.1 mg/ml) (Sigma #P4333) in 10% Fetal Bovine Serum (FBS) (Sigma #F0804). The cells were routinely passaged and grown to confluency (10^6 cells/ml). On the day of the experiment, THP-1 cells were harvested and resuspended into RPMI medium (without FBS). The cells were then counted and viability (>90%) checked by Trypan blue (Sigma #T8154). Appropriate dilutions were made to give a concentration of 625,000 cells/ml. To this diluted cell solution was added LPS (Sigma #L4524) to give a 1 μg/ml Final Assay Concentration (FAC). 40 μl of the final preparation was aliquoted into each well of a 96-well plate. The plate thus prepared was used for compound screening.
The following method step-by-step assay was followed for compound screening. • 1. Seed THP-1 cells (25,000 cells/well) containing 1.0 μg/ml LPS in 40 μl of RPMI medium (without FBS) in 96-well, black walled, clear bottom cell culture plates coated with poly-D-lysine (VWR #734-0317) • 2. Add 5 μl compound (8 points half-log dilution, with 10 μM top dose) or vehicle (DMSO 0.1% FAC) to the appropriate wells • 3. Incubate for 3 hrs at 37° C., 5% CO2 • 4. Add 5 μl nigericin (Sigma #N7143) (FAC 5 μM) to all wells • 5. Incubate for 1 hr at 37° C., 5% CO2 • 6. At the end of the incubation period, spin plates at 300×g for 3 mins and remove supernatant • 7. Then add 50 μl of resazurin (Sigma #R7017)(FAC 100 μM resazurin in RPMI medium without FBS) and incubate plates for a further 1-2 hrs at 37° C. and 5% CO2 • 8. Plates were read in an Envision reader at Ex 560 nm and Em 590 nm • 9. IC50 data is fitted to a non-linear regression equation (log inhibitor vs response-variable slope 4-parameters) 96-well Plate Map

IC50 [µM]	Structure (SMILES)
≤ 10	COc1cc(-c2cc(F)cc(C(C)C)c2CC(=O)NS(=O)(=O)c2ccc(=O)n(C)c2)ccn1 [Example 1, 2-(4-Fluoro-2-isopropyl-6-(2-methoxypyridin-4-yl)phenyl)-N-((1-methyl-6-oxo-,6-dihydropyridin-3-yl)sulfonyl)acetamide, potassium salt]
≤ 5	COc1cc(-c2cc(F)cc(C(C)C)c2CC(=O)NS(=O)(=O)c2ccc(=O)n(C(C)C)c2)ccn1 [Example 2, 2-(4-Fluoro-2-isopropyl-6-(2-methoxypyridin-4-yl)phenyl)-N-((1-isopropyl-6-oxo-,6-dihydropyridin-3-yl)sulfonyl)acetamide, potassium salt]
≤ 1	COc1cc(-c2cc(F)cc(C(C)C)c2CC(=O)NS(=O)(=O)c2cn(C)c(=O)n(C)c2=O)ccn1 [Example 3, N-((1,3-Dimethyl-2,4-dioxo-1,2,3,4-tetrahydropyrimidin-5-yl)sulfonyl)-2-(4-fluoro-2-isopropyl-6-(2-methoxypyridin-4-yl)phenyl)acetamide]
≤ 1	COc1cc(-c2cc(F)cc(C(C)C)c2CC(=O)NS(=O)(=O)c2ccc(Cl)cc2F)ccn1 [Example 4]
≤ 1	COc1cc(-c2cc(F)cc(C(C)C)c2CC(=O)NS(=O)(=O)c2cccc(Cl)c2)ccn1 [Example 5]
≤ 10	COc1cc(-c2cc(F)cc(C(C)C)c2CC(=O)NS(=O)(=O)c2cccc(Cl)c2C)ccn1 [Example 6]
≤ 5	COc1cc(-c2cc(F)cc(C(C)C)c2CC(=O)NS(=O)(=O)c2ccccc2Cl)ccn1 [Example 7]
≤ 10	COc1cc(-c2cc(F)cc(C(C)C)c2CC(=O)NS(=O)(=O)c2sccc2C(C)(C)O)ccn1 [Example 8]
≤ 5	COC(=O)c1ccc(S(=O)(=O)NC(=O)Cc2c(-c3ccnc(OC)c3)cc(F)cc2C(C)C)cc1Cl [Example 9]
≤ 5	CC(C)c1cc(F)cc(-c2ccc(Cl)nc2)c1CC(=O)NS(=O)(=O)c1cc(C(C)(C)O)cs1 [Example 10]
≤ 1	COc1cc(-c2cc(F)cc(C(C)C)c2CC(=O)NS(=O)(=O)c2ccc(Cl)c(Cl)c2)ccn1 [Example 11]
≤ 1	COc1cc(-c2cc(F)cc(C(C)C)c2CC(=O)NS(=O)(=O)c2ccc(Cl)cc2OC)ccn1 [Example 12]
≤ 1	COc1cc(-c2cc(F)cc(C(C)C)c2CC(=O)NS(=O)(=O)c2ccc(Cl)cc2Cl)ccn1 [Example 13]
≤ 0.5	COc1cc(-c2cc(F)cc(C(C)C)c2CC(=O)NS(=O)(=O)c2ccc(N(C)C)cc2C)ccn1 [Example 14]
≤ 5	COc1cc(-c2cc(F)cc(C(C)C)c2CC(=O)NS(=O)(=O)c2ccc(C(=O)N(C)C)cc2C)ccn1 [Example 15]
≤ 5	CC(C)c1cc(F)cc(-c2ccncc2)c1CC(=O)NS(=O)(=O)c1ccc(Cl)cc1 [Example 16]
≤ 5	CC(C)c1cc(F)cc(-c2cccnc2)c1CC(=O)NS(=O)(=O)c1ccc(Cl)cc1 [Example 17]
≤ 10	COc1cc(-c2cc(F)cc(C(C)C)c2CC(=O)NS(=O)(=O)c2ccc(B(O)O)cc2)ccn1 [Example 18]

IC50 [µM]	Structure (SMILES)
≤ 1	COc1cc(-c2cc(F)cc(C(C)C)c2CC(=O)NS(=O)(=O)c2ccc(Br)cc2)ccn1 [Example 19]
≤ 1	COc1cc(-c2ccc3c(c2CC(=O)NS(=O)(=O)c2cc(C(C)(C)O)cs2)CCC3)ccn1 [Example 20, N-((4-(2-Hydroxypropan-2-yl)thiophen-2-yl)sulfonyl)-2-(5-(2-methoxypyridin-4-yl)-2,3-dihydro-1H-inden-4-yl)acetamide]
≤ 10	CC(C)n1ccc(S(=O)(=O)NC(=O)Cc2c(-c3ccnc(C#N)c3)ccc3c2CCC3)n1 [Example 21, 2-(5-(2-Cyanopyridin-4-yl)-2,3-dihydro-H-inden-4-yl)-N-((1-isopropyl-1H-pyrazol-3-yl)sulfonyl)acetamide]
≤ 5	CC(C)(O)c1csc(S(=O)(=O)NC(=O)Cc2c(-c3ccnc(C#N)c3)ccc3c2CCC3)c1 [Example 22, 2-(5-(2-Cyanopyridin-4-yl)-2,3-dihydro-1H-inden-4-yl)-N-((4-(2-hydroxypropan-2-yl)thiophen-2-yl)sulfonyl)acetamide]
≤ 5	COc1cc(-c2cc(F)cc(C(C)C)c2CC(=O)NS(=O)(=O)c2ccn(C(C)C)n2)ccn1 [Example 23, 2-(4-Fluoro-2-isopropyl-6-(2-methoxypyridin-4-yl)phenyl)-N-((1-isopropyl-1H-pyrazol-3-yl)sulfonyl)acetamide, potassium salt]
≤ 10	CC(C)c1cc(F)cc(-c2cccnc2)c1CC(=O)NS(=O)(=O)c1ccn(C(C)C)n1 [Example 24, 2-(4-Fluoro-2-isopropyl-6-(pyridin-3-yl)phenyl)-N-((1-isopropyl-1H-pyrazol-3-yl)sulfonyl)acetamide, potassium salt]
≤ 0.5	CC(C)c1cc(F)cc(-c2cccnc2)c1CC(=O)NS(=O)(=O)c1cc(C(C)(C)O)cs1 [Example 25, 2-(4-Fluoro-2-isopropyl-6-(pyridin-3-yl)phenyl)-N-((4-(2-hydroxypropan-2-yl)thiophen-2-yl)sulfonyl)acetamide]
≤ 0.5	COc1cc(-c2cc(F)cc(C(C)C)c2CC(=O)NS(=O)(=O)c2cc(C(C)(C)O)cs2)ccn1 [Example 26, 2-(4-Fluoro-2-isopropyl-6-(2-methoxypyridin-4-yl)phenyl)-N-((4-(2-hydroxypropan-2-yl)thiophen-2-yl)sulfonyl)acetamide]
≤ 0.5	CC(C)c1cc(F)cc(-c2ccncc2)c1CC(=O)NS(=O)(=O)c1cc(C(C)(C)O)cs1 [Example 27, 2-(4-Fluoro-2-isopropyl-6-(pyridin-4-yl)phenyl)-N-((4-(2-hydroxypropan-2-yl)thiophen-2-yl)sulfonyl)acetamide, potassium salt]
≤ 5	CCOC(=O)c1cc(S(=O)(=O)NC(=O)Cc2c(-c3ccnc(OC)c3)cc(F)cc2C(C)C)nn1C [Example 28, Ethyl 3-(N-(2-(4-fluoro-2-isopropyl-6-(2-methoxypyridin-4-yl)phenyl)acetyl)sulfamoyl)-1-methyl-1H-pyrazole-5-carboxylate]
≤ 5	COc1cc(-c2cc(F)cc(C(C)C)c2CC(=O)NS(=O)(=O)c2ccc3c(c2)C(C)(C)OC3=O)ccn1 [Example 29, N-((3,3-Dimethyl-1-oxo-1,3-dihydroisobenzofuran-5-yl)sulfonyl)-2-(4-fluoro-2-isopropyl-6-(2-methoxypyridin-4-yl)phenyl) acetamide]
≤ 5	COc1cc(-c2cc(F)cc(C(C)C)c2CC(=O)NS(=O)(=O)c2cccc(C#N)c2)ccn1 [Example 30, N-((3-Cyanophenyl)sulfonyl)-2-(4-fluoro-2-isopropyl-6-(2-methoxypyridin-4-yl)phenyl)acetamide]
≤ 5	COc1cc(-c2cc(F)cc(C(C)C)c2CC(=O)NS(=O)(=O)c2ccc(CN(C)C)cc2)ccn1 [Example 31, N-((4-((Dimethylamino)methyl)phenyl)sulfonyl)-2-(4-fluoro-2-isopropyl-6-(2-methoxypyridin-4-yl)phenyl)acetamide, potassium salt]
≤ 1	COc1cc(-c2cc(F)cc(C(C)C)c2CC(=O)NS(=O)(=O)c2cccc(CC#N)c2)ccn1 [Example 32, N-((3-(Cyanomethyl)phenyl)sulfonyl)-2-(4-fluoro-2-isopropyl-6-(2-methoxypyridin-4-yl)phenyl)acetamide]
≤ 0.5	COc1cc(-c2cc(F)cc(C(C)C)c2CC(=O)NS(=O)(=O)c2ccc(C(C)(C)O)cc2C)ccn1 [Example 33, 2-(4-Fluoro-2-isopropyl-6-(2-methoxypyridin-4-yl)phenyl)-N-((4-(2-hydroxypropan-2-yl)-2-methylphenyl)sulfonyl)acetamide]
≤ 10	COc1cc(-c2cc(F)cc(C(C)C)c2CC(=O)NS(=O)(=O)c2ccc(F)c(C#N)c2)ccn1 [Example 34, N-((3-Cyano-4-fluorophenyl)sulfonyl)-2-(4-fluoro-2-isopropyl-6-(2-methoxypyridin-4-yl)phenyl)acetamide]
≤ 10	COc1cc(-c2cc(F)cc(C(C)C)c2CC(=O)NS(=O)(=O)c2cc(C#N)ccc2C)ccn1 [Example 35, N-((5-Cyano-2-methylphenyl)sulfonyl)-2-(4-fluoro-2-isopropyl-6-(2-methoxypyridin-4-yl)phenyl)acetamide]
≤ 5	CC(C)c1cc(F)cc(-c2ccncc2)c1CC(=O)NS(=O)(=O)c1ccc(CN(C)C)cc1 [Example 36, N-((4-((Dimethylamino)methyl)phenyl)sulfonyl)-2-(4-fluoro-2-isopropyl-6-(pyridin-4-yl)phenyl)acetamide]
